{"source": "patent US9855245B2", "about": "“Methods for improving lipid profiles using atrasentan” (AbbVie Inc., priority 2013, dated 2018)", "system": "subjects with type 2 diabetes and nephropathy", "assay": "Example 4: combined data of Examples 1 and 2, statin / non-statin sub-populations, total and LDL cholesterol", "assay_type": "in vivo, human", "parameters": "Total C, Mean Change / LDL, Mean Change: unit not given here", "protocol": "A review of the data obtained from the studies detailed in Examples 1 and 2, above, with respect to total serum cholesterol and serum LDL cholesterol, indicated a meaningful reduction was achieved relative to baseline for both. For example, although the reduction in total serum cholesterol and serum LDL cholesterol for subjects receiving a 0.75 mg dose of atrasentan, after 12 weeks of therapy, varied, the average for both of the studies detailed in Examples 1 and 2 was approximately 14%. As a result, the data obtained from these studies as further reviewed subsequent to collection and a sub-population of subjects in each study was identified as receiving or taking a statin in combination with the atrasentan dose (either a 0.75 mg or 1.25 mg dose). The data relating to the impact of atrasentan on total serum cholesterol and serum LDL cholesterol from each study for this sub-population was combined and a new average (mean) baseline, as well as change relative thereto over the time period of the study, was calculated for each of the total serum cholesterol and serum LDL cholesterol. For purposes of comparison, data relating to the impact of atrasentan on total serum cholesterol and serum LDL cholesterol for each study for subjects that were not receiving or taking a statin was combined and a new average (mean) baseline, as well as change relative thereto over the time period of the study, was also calculated for each of the total serum cholesterol and serum LDL cholesterol.", "key": {"[1]": {"settings": "subjects not receiving statins, 0.75 mg"}, "[2]": {"settings": "subjects receiving statins and 0.75 mg of atrasentan"}}, "data": [{"smiles": "CCCCN(CCCC)C(=O)CN1C[C@H](c2ccc3c(c2)OCO3)[C@@H](C(=O)O)[C@@H]1c1ccc(OC)cc1", "note": "[Atrasentan, (2R,3R,4S)-4-(1,3-benzodioxol-5-yl)-1-[2-(dibutylamino)-2-oxoethyl]-2-(4-methoxyphenyl)pyrrolidine-3-carboxylic acid]", "values": [{"measurement": "reduction in total serum cholesterol and serum LDL cholesterol relative to baseline, average for both studies (Examples 1 and 2)", "setting": "0.75 mg dose, after 12 weeks of therapy", "value": "approximately 14%"}, {"measurement": "LDL, % Change", "setting": "Non-Statin, 0.75 mg", "value": "−13.1", "unit": "%"}, {"measurement": "LDL, Mean Change", "setting": "Non-Statin, 0.75 mg", "value": "−13.4"}, {"measurement": "Total C, % Change", "setting": "Non-Statin, 0.75 mg", "value": "−9.3", "unit": "%"}, {"measurement": "Total C, Mean Change", "setting": "Non-Statin, 0.75 mg", "value": "−14.9"}, {"measurement": "LDL, % Change", "setting": "Non-Statin, 1.25 mg", "value": "−18.8", "unit": "%"}, {"measurement": "LDL, Mean Change", "setting": "Non-Statin, 1.25 mg", "value": "−21.0"}, {"measurement": "Total C, % Change", "setting": "Non-Statin, 1.25 mg", "value": "−12.8", "unit": "%"}, {"measurement": "Total C, Mean Change", "setting": "Non-Statin, 1.25 mg", "value": "−18.4"}, {"measurement": "LDL, % Change", "setting": "Statin sub-population, 0.75 mg", "value": "−15.4", "unit": "%"}, {"measurement": "LDL, Mean Change", "setting": "Statin sub-population, 0.75 mg", "value": "−12.8"}, {"measurement": "Total C, % Change", "setting": "Statin sub-population, 0.75 mg", "value": "−10.4", "unit": "%"}, {"measurement": "Total C, Mean Change", "setting": "Statin sub-population, 0.75 mg", "value": "−17.1"}, {"measurement": "LDL, % Change", "setting": "Statin sub-population, 1.25 mg", "value": "−14.2", "unit": "%"}, {"measurement": "LDL, Mean Change", "setting": "Statin sub-population, 1.25 mg", "value": "−11.6"}, {"measurement": "Total C, % Change", "setting": "Statin sub-population, 1.25 mg", "value": "−10.4", "unit": "%"}, {"measurement": "Total C, Mean Change", "setting": "Statin sub-population, 1.25 mg", "value": "−17.1"}, {"measurement": "reduction in LDL cholesterol", "setting": "[1]", "value": 13, "unit": "%"}, {"measurement": "reduction in total cholesterol", "setting": "[1]", "value": 9, "unit": "%"}, {"measurement": "reduction in LDL cholesterol", "setting": "[2]", "value": 15, "unit": "%"}, {"measurement": "reduction in total cholesterol", "setting": "[2]", "value": 10, "unit": "%"}]}]}
